The values below come from US4100285A, “N-substituted trialkoxybenzyl piperazine derivatives” (Nippon Shinyaku Co., Ltd., priority 1976, dated 1978).

One series can be described thus: LD50 on mice. Conditions: in vivo, ip; mouse. The protocol:
(§1) For administration of the compounds of this invention into the human body, it is recommended to give them at the dose of 10 to 500 mg/day for internal administration and 1 to 50 mg/day for intravenous aministration. The compounds can be administered as such or in combination with a pharmaceutical carrier conventionally employed in cardiovascular and like preparations.

The test system of a further series is removed guinea pig heart. Description: Cardiovascular activity measured according to Langedorff's method by using the removed guinea pig heart. The settings on record: Concentration 10^-4 g/ml; for Heart Movements: Amplitude / Heart Movements: Tonus: arrow symbols. The protocol: as §1

Take `COc1ccc(CN2CCN(CCN3CCOCC3)CC2)c(OC)c1OC` [Example 4]: in the series “LD50 on mice”, the LD50 (usually the dose at which mortality reaches 50%) was 567 mg/kg. Further, in the series on removed guinea pig heart, the “Coronary perfusion pressure (Δ%)” value is reported as -2.1 Δ%, the “Heart rate (Δ%)” value was -8.6 Δ%, the “Heart Movements: Amplitude” value is “.uparw” and the “Heart Movements: Tonus” value was “→”.

`COc1ccc(CN2CCN(CCCCCCCCN3CCN(Cc4ccc(OC)c(OC)c4OC)CC3)CC2)c(OC)c1OC` [Example 9]: in the series with removed guinea pig heart, the “Coronary perfusion pressure (Δ%)” value is listed as -10.0 Δ%, the “Heart rate (Δ%)” value was -28.6 Δ%, the “Heart Movements: Amplitude” value is recorded as “.dwnarw” and the “Heart Movements: Tonus” value was “.dwnarw”.

`COc1ccc(CN2CCN(CC(C)O)CC2)c(OC)c1OC` (centres unmarked) [Example 11]: the 50% lethal dose (LD50) in “LD50 on mice” worked out at 336 mg/kg. Further, in the series with removed guinea pig heart, the “Coronary perfusion pressure (Δ%)” value is on record as -11.1 Δ%, the “Heart rate (Δ%)” value was -49.4 Δ%, the “Heart Movements: Amplitude” value is recorded as “.dwnarw” and the “Heart Movements: Tonus” value is “→”.

As for `COc1ccc(CN2CCN(CC(O)CO)CC2)c(OC)c1OC` (centres unmarked) [Example 12], in the series “LD50 on mice”, the LD50 turned out to be 724 mg/kg. Besides, in the series with removed guinea pig heart, the “Heart rate (Δ%)” value is -16.1 Δ%, the “Heart Movements: Amplitude” value was “.dwnarw” and the “Heart Movements: Tonus” value was “→”.

As to `COc1ccc(CN2CCN(CC(O)COc3ccccc3)CC2)c(OC)c1OC` (centres unmarked) [Example 14], in the series “LD50 on mice”, the LD50 was 142 mg/kg. In the series on removed guinea pig heart, the “Coronary perfusion pressure (Δ%)” value is on record as -20.0 Δ%, the “Heart rate (Δ%)” value was -48.7 Δ%, the “Heart Movements: Amplitude” value is recorded as “.dwnarw” and the “Heart Movements: Tonus” value is “.dwnarw”.

With `COc1ccc(CN2CCN(CCO)CC2)c(OC)c1OC` [Example 10], in “LD50 on mice”, the LD50 turned out to be 567 mg/kg. In addition, in the series with removed guinea pig heart, the “Coronary perfusion pressure (Δ%)” value is given as -4.4 Δ%, the “Heart rate (Δ%)” value is recorded as -10.7 Δ%, the “Heart Movements: Amplitude” value is “.dwnarw” and the “Heart Movements: Tonus” value is recorded as “.dwnarw”.

Regarding `COc1ccc(CN2CCN(CC=Cc3ccccc3)CC2)c(OC)c1OC` [Example 2], in the series on removed guinea pig heart, the “Coronary perfusion pressure (Δ%)” value is -11.1 Δ%, the “Heart rate (Δ%)” value is recorded as -60.3 Δ%, the “Heart Movements: Amplitude” value is “.dwnarw” and the “Heart Movements: Tonus” value is reported as “→”.

As for `COc1ccc(CN2CCN(c3nc(N)nc(N)n3)CC2)c(OC)c1OC` [Example 3], in the series with removed guinea pig heart, the “Coronary perfusion pressure (Δ%)” value was 4.4 Δ%, the “Heart rate (Δ%)” value is given as -21.9 Δ%, the “Heart Movements: Amplitude” value is “.dwnarw” and the “Heart Movements: Tonus” value is “→”.

As to `COc1ccc(CN2CCN(CCCCCCN3CCN(Cc4ccc(OC)c(OC)c4OC)CC3)CC2)c(OC)c1OC` [Example 8], the LD50 in the series “LD50 on mice” worked out at 84 mg/kg. In addition, in the series on removed guinea pig heart, the “Coronary perfusion pressure (Δ%)” value was -19.2 Δ%, the “Heart rate (Δ%)” value was -19.1 Δ%, the “Heart Movements: Amplitude” value was “.dwnarw” and the “Heart Movements: Tonus” value is on record as “→”.

As to `COc1ccc(CN2CCN(CCN3CCN(Cc4ccc(OC)c(OC)c4OC)CC3)CC2)c(OC)c1OC` [Example 6], in the series on removed guinea pig heart, the “Coronary perfusion pressure (Δ%)” value is reported as -3.7 Δ%, the “Heart rate (Δ%)” value is listed as -11.7 Δ%, the “Heart Movements: Amplitude” value is recorded as “.dwnarw” and the “Heart Movements: Tonus” value is recorded as “→”.

In the case of `COc1ccc(CN2CCN(CCCCN3CCN(Cc4ccc(OC)c(OC)c4OC)CC3)CC2)c(OC)c1OC` [Example 7], in “LD50 on mice”, the median lethal dose (LD50) amounted to 239 mg/kg. In the series with removed guinea pig heart, the “Coronary perfusion pressure (Δ%)” value is -18.8 Δ%, the “Heart rate (Δ%)” value is -37.5 Δ%, the “Heart Movements: Amplitude” value is recorded as “.dwnarw” and the “Heart Movements: Tonus” value was “→”.

Consider `COc1ccc(CN2CCN(CC=C(C)C)CC2)c(OC)c1OC` [Example 1], for which, in the series on removed guinea pig heart, the “Coronary perfusion pressure (Δ%)” value is 5.7 Δ%, the “Heart rate (Δ%)” value is on record as -18.2 Δ%, the “Heart Movements: Amplitude” value is reported as “.dwnarw” and the “Heart Movements: Tonus” value is given as “→”.

Turning to `COc1ccc(CN2CCN(CC(O)c3ccccc3)CC2)c(OC)c1OC` (centres unmarked) [Example 13], the LD50 in “LD50 on mice” is 106 mg/kg. In the series with removed guinea pig heart, the “Coronary perfusion pressure (Δ%)” value is given as -16.0 Δ%, the “Heart rate (Δ%)” value is on record as -54.5 Δ%, the “Heart Movements: Amplitude” value is reported as “.dwnarw” and the “Heart Movements: Tonus” value was “→”.
